For 18 compounds, EC50 results are on record in patent US10800772B2 (Gilead Sciences, Inc., priority 2016, dated 2020).

Holding throughout (assay type): cell-based, HIV-1
Experiment [1] deals with HIV-IIIb (wildtype). As to the kind of experiment: Antiviral assay in MT4 cells, HIV-IIIb wildtype. The note with it: read-out: WT EC50. Summed up: (§1)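 HIV-IIIb at 0.004 m.o.i., 3 h pre-infection of MT4 cells at 37 °C; 2000 cells/well in RPMI 1640 + 10% FBS with 3-fold compound dilutions, 10 conc., quadruplicate. 5-day incubation, CellTiter-Glo readout. EC50 = 50% luminescence decrease.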

Experiment [2] has as its system HIV-IIIb IN T174I BT. As to the kind of experiment: Antiviral assay in MT4 cells, HIV-IIIb IN T174I BT virus (from viral breakthrough). The essentials:
as §1

The test system of experiment [3] is HIV-IIIb IN T174I DE. Put plainly: Antiviral assay in MT4 cells, HIV-IIIb IN T174I DE virus (from dose escalation passaging). The essentials:
as §1

Setting [4] is: Human immunodeficiency virus 1, IIIB, MT4, 120 h.
The mark [5] stands for this setting: Human immunodeficiency virus 1, IIIB, MT4, 120 h, read-out: T174I BT EC50, MT4 cells, HIV-IIIb IN T174I BT (viral breakthrough), 5 days, CellTiter-Glo.
The mark [6] stands for this setting: Human immunodeficiency virus 1, IIIB, MT4, 120 h, read-out: T174I DE EC50, MT4 cells, HIV-IIIb IN T174I DE (dose escalation), 5 days, CellTiter-Glo.

Where two headings read alike, the source gives them in different places.

Broadly, the EC50 is the concentration that produces a half-maximal response. `COCC(=O)N1CCC(c2nn(C)c3ccc(-c4nc5cc(C)c([C@H](OC(C)(C)C)C(=O)O)c(-c6ccc(Cl)cc6)c5s4)cc23)C1` (stereo partly drawn) [Compound 75, (S)-2-(tert-butoxy)-2-(7-(4-chlorophenyl)-2-(3-((R)-1-(2-methoxyacetyl)pyrrolidin-3-yl)-1-methyl-1H-indazol-5-yl)-5-methylbenzo[d]thiazol-6-yl)acetic acid]: the EC50 in experiment [1] (setting [4]) is 16 nM; in experiment [2] (setting [5]), 423 nM; in experiment [3] (setting [6]), 496 nM.
For `Cc1cc2nc(-c3ccc4c(c3)c(C3CCN(C(C)C)CC3)nn4C)sc2c(-c2ccc(Cl)cc2)c1[C@H](OC(C)(C)C)C(=O)O` [Compound 127, (S)-2-(tert-butoxy)-2-(7-(4-chloro-phenyl)-2-(3-(1-isopropylpiperidin-4-yl)-1-methyl-1H-indazol-5-yl)-5-methylbenzo[d]thiazol-6-yl) acetic acid], in that order: 8 nM, 932 nM and 1700 nM.
Regarding “(S)-2-(tert-butoxy)- 2-(7-(4-chloro- phenyl)-2-(3-(1-(2- (dimethylamino) ethyl)piperidin-4- yl)-1-methyl-1H- indazol-5-yl)-5- methylbenzo[d] thiazol-6-yl) acetic acid [Compound 130]”, the EC50 in experiment [1] (MT4 cells, HIV-IIIb wildtype, 5 days, CellTiter-Glo) is 12 nM; in experiment [2] (MT4 cells, HIV-IIIb IN T174I BT (viral breakthrough), 5 days, CellTiter-Glo, read-out: T174I BT EC50) it was 122 nM; in experiment [3] (MT4 cells, HIV-IIIb IN T174I DE (dose escalation), 5 days, CellTiter-Glo, read-out: T174I DE EC50), 232 nM.
As to `Cc1cc2nc(-c3cnc4c(c3)c(C3CCN(C5CN(C(=O)OC(C)(C)C)C5)CC3)nn4C)sc2c(-c2ccc(Cl)cc2)c1[C@H](OC(C)(C)C)C(=O)O` [Compound 116, (S)-2-(tert-butoxy)-2-(2-(3-(1-(1-(tert-butoxycarbonyl)azetidin-3-yl)piperidin-4-yl)-1-methyl-1H-pyrazolo[3,4-b]pyridin-5-yl)-7-(4-chlorophenyl)-5-methylbenzo[d]thiazol-6-yl)acetic acid], the EC50 was determined as 40 nM in experiment [1] (setting [4]), 3810 nM in experiment [2] (setting [5]) and 5190 nM in experiment [3] (setting [6]).
Take `COC(=O)N1CC[C@@H]1CN1CCC(c2nn(C)c3ccc(-c4nc5cc(C)c([C@H](OC(C)(C)C)C(=O)O)c(-c6ccc(Cl)cc6)c5s4)cc23)CC1` [Compound 5, (S)-2-(tert-butoxy)-2-(7-(4-chlorophenyl)-2-(3-(1-(((R)-1-(methoxycarbonyl)azetidin-2-yl)methyl)piperidin-4-yl)-1-methyl-1H-indazol-5-yl)-5-methylbenzo[d]thiazol-6-yl)acetic Acid]: the EC50 in experiment [1] (setting [4]) was 3 nM; in experiment [2] (setting [5]), 106 nM; in experiment [3] (setting [6]), 169 nM.
For `Cc1cc2nc(-c3ccn4ncc(C5CCN(C6COC6)CC5)c4n3)sc2c(-c2ccc(Cl)cc2)c1[C@H](OC(C)(C)C)C(=O)O` [Compound 109, (S)-2-(tert-butoxy)-2-(7-(4-chlorophenyl)-5-methyl-2-(3-(1-(oxetan-3-yl)piperidin-4-yl)pyrazolo[1,5-a]pyrimidin-5-yl)benzo[d]thiazol-6-yl)acetic acid] the same measures were 3 nM, 205 nM and 614 nM.
For `Cc1cc2nc(-c3ccc4c(c3)c(N3CC(N5CCOCC5)C3)nn4C)sc2c(-c2ccc(Cl)cc2)c1[C@H](OC(C)(C)C)C(=O)O` [Compound 88, (S)-2-(tert-butoxy)-2-(7-(4-chlorophenyl)-5-methyl-2-(1-methyl-3-(3-morpholinoazetidin-1-yl)-1H-indazol-5-yl)benzo[d]thiazol-6-yl)acetic acid] the same measures were 10 nM, 1240 nM and 1700 nM.
For `Cc1cc2nc(-c3ccc4c(c3)c(C3CN(C5COC5)C3)nn4C)sc2c(-c2ccc(Cl)cc2)c1[C@H](OC(C)(C)C)C(=O)O` [Compound 59, (S)-2-(tert-butoxy)-2-(7-(4-chlorophenyl)-5-methyl-2-(1-methyl-3-(1-(oxetan-3-yl)azetidin-3-yl)-1H-indazol-5-yl)benzo[d]thiazol-6-yl)acetic acid] the same measures were 8 nM, 883 nM and 1730 nM.
For `Cc1cc2nc(-c3ccc4[nH]nc(C5CCN(C6COC6)CC5)c4n3)sc2c(-c2ccc(Cl)cc2)c1[C@H](OC(C)(C)C)C(=O)O` [Compound 174, (S)-2-(tert-butoxy)-2-(7-(4-chloro-phenyl)-5-methyl-2-(3-(1-(oxetan-3-yl)piperidin-4-yl)-1H-pyrazolo [4,3-b]pyridin-5-yl)benzo[d]thiazol-6-yl)acetic acid], the EC50 in experiment [1] (setting [4]) came out at 11 nM; in experiment [2] (setting [5]) it was 219 nM; in experiment [3] (setting [6]), 587 nM.
For `COC(=O)N1CC(N2CCC(c3nn(C(F)F)c4ccc(-c5nc6cc(C)c([C@H](OC(C)(C)C)C(=O)O)c(-c7ccc(Cl)cc7)c6s5)cc34)CC2)C1` [Compound 44, (S)-2-(tert-butoxy)-2-(7-(4-chlorophenyl)-2-(1-(difluoromethyl)-3-(1-(1-(methoxycarbonyl)azetidin-3-yl)piperidin-4-yl)-1H-indazol-5-yl)-5-methylbenzo[d]thiazol-6-yl)acetic acid] the same measures were 30 nM, 600 nM and 776 nM.
For `COC(=O)N1CC[C@H](N2CCC(c3nn(C)c4ccc(-c5nc6cc(C)c([C@H](OC(C)(C)C)C(=O)O)c(-c7ccc(Cl)cc7)c6s5)nc34)CC2)C1` [Compound 193, (S)-2-(tert-butoxy)-2-(7-(4-chloro-phenyl)-2-(3-(1-((S)-l-(methoxy-carbonyl)pyrrolidin-3-yl)piperidin-4-yl)-1-methyl-1H-pyrazolo[4,3-b]pyridin-5-yl)-5-methylbenzo[d]thiazol-6-yl) acetic acid] the same measures were 3 nM, 87 nM and 265 nM.
Turning to `CN[C@H]1CCN(c2nn(C)c3ccc(-c4nc5cc(C)c([C@H](OC(C)(C)C)C(=O)O)c(-c6ccc(Cl)cc6)c5s4)cc23)C1` [Compound 94, (S)-2-(tert-butoxy)-2-(7-(4-chlorophenyl)-5-methyl-2-(1-methyl-3-((S)-3-(methylamino)pyrrolidin-1-yl)-1H-indazol-5-yl)benzo[d]thiazol-6-yl)acetic acid], the EC50 in experiment [1] (setting [4]) turned out to be 38 nM; in experiment [2] (setting [5]), 2720 nM; in experiment [3] (setting [6]) it was 2520 nM.
For `Cc1cc2nc(-c3ccc4c(c3)c(N3CCN(CCN5CCOCC5)C3=O)nn4C)sc2c(-c2ccc(Cl)cc2)c1[C@H](OC(C)(C)C)C(=O)O` [Compound 83, (S)-2-(tert-butoxy)-2-(7-(4-chlorophenyl)-5-methyl-2-(1-methyl-3-(3-(2-morpholinoethyl)-2-oxoimidazolidin-1-yl)-1H-indazol-5-yl)benzo[d]thiazol-6-yl)acetic acid] the same measures were 17 nM, 2230 nM and 2810 nM.
For `CC(=O)N1CC(N2CCC(c3nn(CCN(C)C)c4ccc(-c5nc6cc(C)c([C@H](OC(C)(C)C)C(=O)O)c(-c7ccc(Cl)cc7)c6s5)cc34)CC2)C1` [Compound 33, (S)-2-(2-(3-(1-(1-acetylazetidin-3-yl)piperidin-4-yl)-1-(2-(dimethylamino)ethyl)-1H-indazol-5-yl)-7-(4-chlorophenyl)-5-methylbenzo[d]thiazol-6-yl)-2-(tert-butoxy)acetic acid] the same measures were 5 nM, 587 nM and 1020 nM.
As to `Cc1cc2nc(-c3ccc4c(c3)c(C3CCN(C5CCC5)C3)nn4C)sc2c(-c2ccc(Cl)cc2)c1[C@H](OC(C)(C)C)C(=O)O` (stereo partly drawn) [Compound 71, (2S)-2-(tert-butoxy)-2-(7-(4-chlorophenyl)-2-(3-(1-cyclobutylpyrrolidine-3-yl)-1-methyl-1H-indazol-5-yl)-5-methylbenzo[d]thiazol-6-yl)acetic acid], the results for the EC50 in experiment [1] (setting [4]), in experiment [2] (setting [5]) and in experiment [3] (setting [6]) were 5 nM, 2470 nM and 2240 nM, respectively.
Turning to `COC1CCN(c2nn(C)c3ccc(-c4nc5cc(C)c([C@H](OC(C)(C)C)C(=O)O)c(-c6ccc(Cl)cc6)c5s4)cc23)CC1` [Compound 142, (S)-2-(tert-butoxy)-2-(7-(4-chloro-phenyl)-2-(3-(4-methoxypiperidin-1-yl)-1-methyl-1H-indazol-5-yl)-5-methylbenzo[d]thiazol-6-yl) acetic acid], the EC50 worked out at 12 nM in experiment [1] (setting [4]), 1560 nM in experiment [2] (setting [5]) and 2330 nM in experiment [3] (setting [6]).
For `Cc1cc2nc(-c3ccc4c(c3)c(C3=CCOCC3)nn4C)sc2c(-c2ccc(Cl)cc2)c1[C@H](OC(C)(C)C)C(=O)O` [Compound 18, (S)-2-(tert-butoxy)-2-(7-(4-chlorophenyl)-2-(3-(3,6-dihydro-2H-pyran-4-yl)-1-methyl-1H-indazol-5-yl)-5-methylbenzo[d]thiazol-6-yl)acetic Acid] the same measures were 14 nM, 2150 nM and 4500 nM.
In the case of `Cc1cc2nc(-c3ccc4c(c3)c(N3CC5CCC(C3)O5)nn4C)sc2c(-c2ccc(Cl)cc2)c1[C@H](OC(C)(C)C)C(=O)O` [Compound 141, (2S)-2-(2-(3-(8-oxa-3-azabicyclo [3.2.1]octan-3-yl)-1-methyl-1H-indazol-5-yl)-7-(4-chlorophenyl)-5-methylbenzo [d]thiazol-6-yl)-2-(tert-butoxy) acetic acid], the EC50 was found to be 24 nM in experiment [1] (setting [4]), 3560 nM in experiment [2] (setting [5]) and 3930 nM in experiment [3] (setting [6]).
